{"source": "PubChem BioAssay (NCI)", "test_in_all_cases": "NCI tumour cell line growth inhibition, 384-well format", "key": {"M14 melanoma": {"system": "M14 melanoma"}, "SF-539 CNS": {"system": "SF-539 CNS"}, "MDA-MB-435 melanoma": {"system": "MDA-MB-435 melanoma"}, "HL-60(TB) leukemia": {"system": "HL-60(TB) leukemia"}, "OVCAR-4 ovarian": {"system": "OVCAR-4 ovarian"}, "NCI/ADR-RES ovarian": {"system": "NCI/ADR-RES ovarian"}, "NCI-H522 lung": {"system": "NCI-H522 lung"}, "OVCAR-3 ovarian": {"system": "OVCAR-3 ovarian"}, "SK-OV-3 ovarian": {"system": "SK-OV-3 ovarian"}, "NCI-H23 lung": {"system": "NCI-H23 lung"}, "NCI-H322M lung": {"system": "NCI-H322M lung"}, "NCI-H226 lung": {"system": "NCI-H226 lung"}, "COLO 205 colon": {"system": "COLO 205 colon"}, "HOP-62 NSCLC": {"system": "HOP-62 NSCLC"}, "EKVX NSCLC": {"system": "EKVX NSCLC"}, "SF-295 CNS": {"system": "SF-295 CNS"}, "HCC-2998 colon": {"system": "HCC-2998 colon"}, "SNB-75 CNS": {"system": "SNB-75 CNS"}, "UACC-257 melanoma": {"system": "UACC-257 melanoma"}, "U251 glioblastoma": {"system": "U251 glioblastoma"}, "A549 NSCLC": {"system": "A549 NSCLC"}, "IGROV1 ovarian": {"system": "IGROV1 ovarian"}, "HS 578T breast": {"system": "HS 578T breast"}, "ACHN renal": {"system": "ACHN renal"}, "SN12C renal": {"system": "SN12C renal"}, "CAKI-1 renal": {"system": "CAKI-1 renal"}, "SK-MEL-5 melanoma": {"system": "SK-MEL-5 melanoma"}, "DU-145 prostate": {"system": "DU-145 prostate"}, "NCI-H460 NSCLC": {"system": "NCI-H460 NSCLC"}, "HCT-15 colon": {"system": "HCT-15 colon"}, "HCT-116 colon": {"system": "HCT-116 colon"}, "RPMI-8226 leukemia": {"system": "RPMI-8226 leukemia"}, "SNB-19 CNS": {"system": "SNB-19 CNS"}, "MDA-MB-231 breast": {"system": "MDA-MB-231 breast"}, "SK-MEL-28 melanoma": {"system": "SK-MEL-28 melanoma"}, "A498 renal": {"system": "A498 renal"}, "MALME-3M melanoma": {"system": "MALME-3M melanoma"}, "MCF7 breast": {"system": "MCF7 breast"}, "SR leukemia": {"system": "SR leukemia"}, "MDA-MB-468 breast": {"system": "MDA-MB-468 breast"}, "SF-268 CNS": {"system": "SF-268 CNS"}, "BT-549 breast": {"system": "BT-549 breast"}, "TK-10 renal": {"system": "TK-10 renal"}, "UACC-62 melanoma": {"system": "UACC-62 melanoma"}, "KM12 colon": {"system": "KM12 colon"}, "MOLT-4 leukemia": {"system": "MOLT-4 leukemia"}}, "note": "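GI50 is the concentration that inhibits growth by half. At the TGI there is no net growth.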"}
{"smiles": "O=C(NC1CCNCC1)c1[nH]ncc1NC(=O)c1c(Cl)cccc1Cl", "values": [{"measurement": "GI50", "setting": "M14 melanoma", "result": 257, "unit": "nM"}, {"measurement": "TGI", "setting": "M14 melanoma", "result": 619, "unit": "nM"}, {"measurement": "GI50", "setting": "SF-539 CNS", "result": 212, "unit": "nM"}, {"measurement": "TGI", "setting": "SF-539 CNS", "result": 454, "unit": "nM"}, {"measurement": "GI50", "setting": "MDA-MB-435 melanoma", "result": 191, "unit": "nM"}, {"measurement": "TGI", "setting": "MDA-MB-435 melanoma", "result": 379, "unit": "nM"}, {"measurement": "GI50", "setting": "HL-60(TB) leukemia", "result": 105, "unit": "nM"}, {"measurement": "TGI", "setting": "HL-60(TB) leukemia", "result": 224, "unit": "nM"}, {"measurement": "GI50", "setting": "OVCAR-4 ovarian", "result": 262, "unit": "nM"}, {"measurement": "TGI", "setting": "OVCAR-4 ovarian", "result": 560, "unit": "nM"}, {"measurement": "GI50", "setting": "NCI/ADR-RES ovarian", "result": "> 100", "unit": "µM"}, {"measurement": "TGI", "setting": "NCI/ADR-RES ovarian", "result": "> 100", "unit": "µM"}, {"measurement": "GI50", "setting": "NCI-H522 lung", "result": 202, "unit": "nM"}, {"measurement": "TGI", "setting": "NCI-H522 lung", "result": 384, "unit": "nM"}, {"measurement": "GI50", "setting": "OVCAR-3 ovarian", "result": 163, "unit": "nM"}, {"measurement": "TGI", "setting": "OVCAR-3 ovarian", "result": 347, "unit": "nM"}, {"measurement": "GI50", "setting": "SK-OV-3 ovarian", "result": 362, "unit": "nM"}, {"measurement": "TGI", "setting": "SK-OV-3 ovarian", "result": "> 100", "unit": "µM"}, {"measurement": "GI50", "setting": "NCI-H23 lung", "result": 180, "unit": "nM"}, {"measurement": "TGI", "setting": "NCI-H23 lung", "result": 345, "unit": "nM"}, {"measurement": "GI50", "setting": "NCI-H322M lung", "result": 197, "unit": "nM"}, {"measurement": "TGI", "setting": "NCI-H322M lung", "result": 477, "unit": "nM"}, {"measurement": "GI50", "setting": "NCI-H226 lung", "result": 205, "unit": "nM"}, {"measurement": "TGI", "setting": "NCI-H226 lung", "result": 527, "unit": "nM"}, {"measurement": "GI50", "setting": "COLO 205 colon", "result": 126, "unit": "nM"}, {"measurement": "TGI", "setting": "COLO 205 colon", "result": 391, "unit": "nM"}, {"measurement": "GI50", "setting": "HOP-62 NSCLC", "result": 212, "unit": "nM"}, {"measurement": "TGI", "setting": "HOP-62 NSCLC", "result": 500, "unit": "nM"}, {"measurement": "GI50", "setting": "EKVX NSCLC", "result": 366, "unit": "nM"}, {"measurement": "TGI", "setting": "EKVX NSCLC", "result": 1830, "unit": "nM"}, {"measurement": "GI50", "setting": "SF-295 CNS", "result": 352, "unit": "nM"}, {"measurement": "TGI", "setting": "SF-295 CNS", "result": "> 100", "unit": "µM"}, {"measurement": "GI50", "setting": "HCC-2998 colon", "result": 151, "unit": "nM"}, {"measurement": "TGI", "setting": "HCC-2998 colon", "result": 360, "unit": "nM"}, {"measurement": "GI50", "setting": "SNB-75 CNS", "result": 194, "unit": "nM"}, {"measurement": "TGI", "setting": "SNB-75 CNS", "result": 356, "unit": "nM"}, {"measurement": "GI50", "setting": "UACC-257 melanoma", "result": 246, "unit": "nM"}, {"measurement": "TGI", "setting": "UACC-257 melanoma", "result": 564, "unit": "nM"}, {"measurement": "GI50", "setting": "U251 glioblastoma", "result": 268, "unit": "nM"}, {"measurement": "TGI", "setting": "U251 glioblastoma", "result": 703, "unit": "nM"}, {"measurement": "GI50", "setting": "A549 NSCLC", "result": 388, "unit": "nM"}, {"measurement": "TGI", "setting": "A549 NSCLC", "result": "> 100", "unit": "µM"}, {"measurement": "GI50", "setting": "IGROV1 ovarian", "result": 286, "unit": "nM"}, {"measurement": "TGI", "setting": "IGROV1 ovarian", "result": 809, "unit": "nM"}, {"measurement": "GI50", "setting": "HS 578T breast", "result": 209, "unit": "nM"}, {"measurement": "TGI", "setting": "HS 578T breast", "result": 477, "unit": "nM"}, {"measurement": "GI50", "setting": "ACHN renal", "result": 2360, "unit": "nM"}, {"measurement": "TGI", "setting": "ACHN renal", "result": 34.9, "unit": "µM"}, {"measurement": "GI50", "setting": "SN12C renal", "result": 181, "unit": "nM"}, {"measurement": "TGI", "setting": "SN12C renal", "result": 395, "unit": "nM"}, {"measurement": "GI50", "setting": "CAKI-1 renal", "result": 371, "unit": "nM"}, {"measurement": "TGI", "setting": "CAKI-1 renal", "result": "> 100", "unit": "µM"}, {"measurement": "GI50", "setting": "SK-MEL-5 melanoma", "result": 183, "unit": "nM"}, {"measurement": "TGI", "setting": "SK-MEL-5 melanoma", "result": 337, "unit": "nM"}, {"measurement": "GI50", "setting": "DU-145 prostate", "result": 260, "unit": "nM"}, {"measurement": "TGI", "setting": "DU-145 prostate", "result": 692, "unit": "nM"}, {"measurement": "GI50", "setting": "NCI-H460 NSCLC", "result": 168, "unit": "nM"}, {"measurement": "TGI", "setting": "NCI-H460 NSCLC", "result": 379, "unit": "nM"}, {"measurement": "GI50", "setting": "HCT-15 colon", "result": 3.52, "unit": "µM"}, {"measurement": "TGI", "setting": "HCT-15 colon", "result": 43.5, "unit": "µM"}, {"measurement": "GI50", "setting": "HCT-116 colon", "result": 202, "unit": "nM"}, {"measurement": "TGI", "setting": "HCT-116 colon", "result": "> 100", "unit": "µM"}, {"measurement": "GI50", "setting": "RPMI-8226 leukemia", "result": 200, "unit": "nM"}, {"measurement": "TGI", "setting": "RPMI-8226 leukemia", "result": 344, "unit": "nM"}, {"measurement": "GI50", "setting": "SNB-19 CNS", "result": 326, "unit": "nM"}, {"measurement": "TGI", "setting": "SNB-19 CNS", "result": "> 100", "unit": "µM"}, {"measurement": "GI50", "setting": "MDA-MB-231 breast", "result": 256, "unit": "nM"}, {"measurement": "TGI", "setting": "MDA-MB-231 breast", "result": "> 100", "unit": "µM"}, {"measurement": "GI50", "setting": "SK-MEL-28 melanoma", "result": 187, "unit": "nM"}, {"measurement": "TGI", "setting": "SK-MEL-28 melanoma", "result": 394, "unit": "nM"}, {"measurement": "GI50", "setting": "A498 renal", "result": 304, "unit": "nM"}, {"measurement": "TGI", "setting": "A498 renal", "result": 879, "unit": "nM"}, {"measurement": "GI50", "setting": "MALME-3M melanoma", "result": 182, "unit": "nM"}, {"measurement": "TGI", "setting": "MALME-3M melanoma", "result": 348, "unit": "nM"}, {"measurement": "GI50", "setting": "MCF7 breast", "result": 59, "unit": "nM"}, {"measurement": "TGI", "setting": "MCF7 breast", "result": "> 100", "unit": "µM"}, {"measurement": "GI50", "setting": "SR leukemia", "result": 18.5, "unit": "nM"}, {"measurement": "TGI", "setting": "SR leukemia", "result": 37.3, "unit": "nM"}, {"measurement": "GI50", "setting": "MDA-MB-468 breast", "result": 157, "unit": "nM"}, {"measurement": "TGI", "setting": "MDA-MB-468 breast", "result": 296, "unit": "nM"}, {"measurement": "GI50", "setting": "SF-268 CNS", "result": 186, "unit": "nM"}, {"measurement": "TGI", "setting": "SF-268 CNS", "result": 478, "unit": "nM"}, {"measurement": "GI50", "setting": "BT-549 breast", "result": 183, "unit": "nM"}, {"measurement": "TGI", "setting": "BT-549 breast", "result": 377, "unit": "nM"}, {"measurement": "GI50", "setting": "TK-10 renal", "result": 528, "unit": "nM"}, {"measurement": "TGI", "setting": "TK-10 renal", "result": 9.38, "unit": "µM"}, {"measurement": "GI50", "setting": "UACC-62 melanoma", "result": 169, "unit": "nM"}, {"measurement": "TGI", "setting": "UACC-62 melanoma", "result": 369, "unit": "nM"}, {"measurement": "GI50", "setting": "KM12 colon", "result": 176, "unit": "nM"}, {"measurement": "TGI", "setting": "KM12 colon", "result": "> 100", "unit": "µM"}, {"measurement": "GI50", "setting": "MOLT-4 leukemia", "result": 200, "unit": "nM"}, {"measurement": "TGI", "setting": "MOLT-4 leukemia", "result": 344, "unit": "nM"}]}
